From patent US10314894B2, “Treatment of cardio-renal disease using PCSK6” (THE CLEVELAND CLINIC FOUNDATION, priority 2014, dated 2019)
Peptide text beside a SMILES is read from it.

Tested on: corin activation cleavage
Experiment: Protease inhibitors on corin activation cleavage in HEK293 cells expressing corin (Western blotting)
Format: cell-based, human
Conditions: 24 h, transfected HEK293 cells
Procedure: HEK293 cells were cultured in DMEM with 10% fetal bovine serum (FBS). HL-1 cardiomyocytes were cultured in Claycomb medium with 10% FBS, and 4 mM L-glutamine. All cells were cultured at 37° C. in humidified incubators with 5% CO2.
HEK293 and HL-1 cells were transfected with corin or PCSK6 expression plasmids. After 48-72 h, cells were lysed in a buffer containing 25 mM Tris-HCl, pH 7.4, 150 mM NaCl, 1 mM EDTA, 1% (v/v) NP-40, and 1% (v/v) protease inhibitor cocktail. Recombinant corin and PCSK6 proteins were immunoprecipitated with an anti-V5 or anti-flag antibody. Western blotting was carried out to analyze corin expression and activation or PCSK6 expression with or without reducing agents. Percentage of corin activation (corin-p vs. corin fragments) was quantified by densitometric analysis of Western blots.
To identify the corin activator, corin activation cleavage was examined in HEK293 and HL-1 cells expressing corin in the presence of protease inhibitors including benzamidine (5 mM), GM6001 (50 μM), dec-RVKR-cmk (20 μM), or ALLM (N-acetyl-leucyl-leucyl-methionine 50 μM). Liao et al., J Biol Chem 282, 27728-27735 (2007). The inhibitors were added to the cells in separate wells. After 24 h, cell lysates were prepared and corin protein was analyzed by Western blotting.

CCCCCCCCCC(=O)N[C@@H](CCCN=C(N)N)C(=O)N[C@H](C(=O)N[C@@H](CCCCN)C(=O)N[C@@H](CCCN=C(N)N)C(=O)CCl)C(C)C [dec-RVKR-cmk] (HELM PEPTIDE1{[CCCCCCCCCC(=O)[*:2]].R.V.K.R.[ClC[*:1]]}$$$$V2.0)
corin activation (~40-kDa band reduced, ~190-kDa zymogen band increased) (dec-RVKR-cmk 20 μM): corin activation was inhibited
corin activation (~40-kDa band reduced, ~190-kDa zymogen band increased) (dec-RVKR-cmk 20 μM, listed as RVKR-cmk): corin activation cleavage was inhibited

N=C(N)c1ccccc1 [benzamidine]
corin activation (~40-kDa band reduced, ~190-kDa zymogen band increased) (benzamidine 5 mM): corin activation cleavage was inhibited
